Source: patent publication US11793816B2, “Methods for enhancing cytotoxic cancer therapy through inhibition of ATG4B” (Northwestern University, priority 2019, dated 2023)

Tests used:
[1] = Toxicity evaluation of NSC185058 in mouse organs (behavior, hematoxylin and eosin staining); type: in vivo, mice; conditions: for pathologic analysis of vital organs (hematoxylin and eosin): 150 mg/kg Monday, brain, heart, liver, lung, kidney, spleen, one week after last dosing
Experimental: FIG. 1. NSC185058 (NSC) effectively distributes to the plasma, the brain, and the liver with minimal toxicity in mice. (A) to (C) Mice were dosed with peanut oil vehicle or ATG4B antagonists NSC185058 at doses of 10 or 50 mg/kg body weight. Plasma, the brain, and the liver tissues were collected at the indicated time points. (A) Total concentrations of the NSC compound in plasma were measured by LC-MS/MS. The PK parameter of NSC in plasma was determined. (B) NSC levels in plasma were determined form 5 min to 24 hr post dosing. The chemical structure of NSC was shown. (C) NSC levels were determined in the plasma, the brain, and the liver tissues at 0.5 and 8 hr post dosing. (D) Hematoxylin and eosin stained section s of indicated organs that were treated with NSC (150 mg/kg body weight) or vehicle on Monday, Wednesday, and Friday for three weeks. Scale bars, 50 μm. n=3 mice/group/time point.
Mice were randomized into two groups before the start of experiment. Animals received peanut oil vehicle (control) or ATG4B antagonists NSC185058 (150 mg/kg body weight) on Monday, Wednesday, and Friday for tow to three weeks. Then, mouse tissues and organs including the liver, the kidney, the lung, the spleen, the heart, and the brain were collected after one week post last dose. All specimens were immediately formalin-fixed for 24-36 hrs and then embedded in paraffin embedded. Five micrometer-thick serial sections were obtained from each samples for standard hematoxylin and eosin staining.
The NSC was administered at the dose of 10 or 50 mg/kg body weight in group of three mice. At the indicated time points spanning a 24 hrs period ([…], 0.5, 1, 2, 4, 8, and 24 hour), the plasma, the brain, and the liver tissues were collected. Plasmid and extracts from the brain and the liver were analyzed by LC-MS/MS using method developed at the Illinois Institute of Technology Research Institute (IITRI). […] Plasma exposure appears to increase beyond the hinge in dose for the dosing range tested. The elimination half-life was 2 and 4 for the 10 and 50 mg/kg dose, respectively. […] To examine whether NSC is tolerated in mouse, we investigated the effect induced by NSC in mouse behavior or by pathologic analysis of vital organs including the brain, the heart, the liver, the lung, the kidney, and the spleen. Mice underwent treatments on Monday, Wednesday, and Friday for three week with either peanut oil (vehicle) or NSC (150 mg/kg body weight) in peanut oil. […] Animal tissues were collected one week after the last dosing and subject for hematoxylin and eosin staining.

GSC83 and GBM43 cells = assay: Cell viability / proliferation after NSC, IR, TMZ alone or combined; type: cell-based; conditions: NSC combined with IR or/and TMZ vs single treatments, 72 hours
[2] = test system: LC3B lipidation and p62/SQSTM1 in GSCs and GBM cells; assay: Immunoblot of autophagy markers after NSC, IR, TMZ; type: cell-based; conditions: NSC with IR or/and TMZ
Experimental: (A) GBM stem-like cells, GSCTS576, and patient-derived xenograft cells, GBM44, were treated with NSC, IR or/and TMZ at the indicated concentrations and combinations for 72 hours. Thereafter, cells were analyzed for cellular viability. Data are shown as mean±SD, n=3 of biological replicates. #, Combination vs. TMZ, P<0.01; &, Combination vs. IR, P<0.01; *, Combination vs. NSC, P<0.01 (B) GSCTS576 and GBM44 cells were treated with NSC, IR or and TMZ with indicated concentration or does for 48 hours, stained with Annexin V/PI, and analyzed by flow cytometry; n=3 biological replicates. Data are shown as mean±SD. #, Combination vs. TMZ, P<0.01; &, Combination vs. IR, P<0.01; *, Combination vs. NSC, P<0.01. (C) TS576 GSCs and GBM44 with indicated treatments were collected and analyzed for levels of the indicated proteins. […]
To determine the effect of combination treatment with NSC185058 and irradiation (IR) or/and TMZ, stem-like glioma cells (GSC83) and patient-derived xenograft GBM (GBM43) cells, were treated with NSC185058, TMZ, IR or the combination of two or three treatments and examined cellular proliferation modulation. […] Toward this end, we analyzed protein expression of autophagy marker protein LC3B and p62/SQSTM1, an established autophagy substrate, DNA damage indicator γH2AFX/γH2AX and apoptosis indicator cleaved CASP3/caspase-3 in both tested cell lines.

[3] = test system: LC3B, p62/SQSTM-1 and LAMP2 in GSC M83 and JK83 cells; assay: Immunoblot of autophagy markers (LC3B, p62, LAMP2) in GSCs treated with AZD2014 and NSC; type: cell-based; conditions: NSC in the presence of AZD2014
Experimental: FIG. 5. A mTORC1/2 inhibitor AZD2014 inhibited cell survival, mTORC1 and mTORC2 activities in GSCs and glioma cells. (A) GSC M83 and JK83 and glioma cells U87 were treated with indicated concentration of AZD2014 for 72 h, then cell viability was evaluated. (B) GSC M83 and JK83 were treated with the indicated concentration of AZD2014 for 1 hr, or with 2 μM AZD2014 for the specified time. Cells were collected for immunoblot analysis. β-actin was used as a loading control; Results are representative of 2 independent experiments. *P<0.05, **P<0.01, paired two-way Student's t-test. Data are representative from three independent experiments with similar results.
FIG. 6. NSC enhanced the cytotoxicity of a mTORC1/2 inhibitor AZD2014 in GSCs. (A) GSC M83 and JK83 were exposed to DMSO control vs AZD2014 vs NSCs vs AZD2014 in combination with NSC for 72 hr. Cells were collected for immunoblot analysis using indicated antibodies. (B) Immunofluorescence analyses for LC3B puncta in GSC M83 and JK83 cells with indicated treatments. (C and D) GSC M83 and JK83 and/or neural progenitor cells (NPC) were treated as indicated in (A), cell viability was tested at 72 h after treatment (C), and cell apoptosis was measured by Annexin V FACS assay 48 h after treatment. Data are representative from three independent experiments with similar results. […]

[4] = test system: intracranial PDX GBM39 tumor xenografts; assay: Intracranial PDX GBM39 xenograft model (BLI, body weight, survival); conditions: monotherapy
Experimental: (A) Designs for Combination Therapy of Targeting Autophagy using NSC (150 mg/kg, Monday, Wednesday, and Friday), IR (2 Gy/day for 5 consecutive days), TMZ (100 mg/kg/day), RT+NSC, TMZ+NSC or RT+TMZ+NSC for PDX GBM39 model. (B) Body weight curves of different groups. Values represent the mean±SEM (n=8). *p<0.05, **p<0.01 compared to vehicle controls. (C) Relative changes in bioluminescent (BLI) signals of intracranial xenograft tumors with vehicle control or indicated treatment. n=8/group. *p<0.05, **p<0.01 compared to vehicle controls. Values represent the mean±SEM (n=8). *p<0.05, **p<0.01 compared to vehicle controls. (D) Representative bioluminescent images of mice-bearing intracranial xenografts with indicated treatments. NSC, IR, TMZ, and the indicated combinations. Treatments were started at day 7 post implantation. Mice were imaged after the last treatment. […] (E) Kaplan-Meier (left) and log-rank p value analyses (right) of mice bearing GSC 83 orthotopic xenografts with indicated treatments. […]
Athymic (Ncr nu/nu) mice at 6-8 week age were obtained from Taconic Farms. […] When Bioluminescent imaging (BLI) was detected in all animal, which were randomized into different treatment groups. […] Mice were monitored every day until the onset of neurological symptoms due to tumor burden. The tumor growth was monitored using the bioluminescent imaging (BLI) station (Caliper Life Sciences).

Compound: S=C(Nc1ccccn1)c1ccccn1 [NSC185058, N-pyridin-2-yl-pyridine-2-carbothioamide]
- pathologic analysis of vital organs (hematoxylin and eosin) ([1]; Wednesday, Friday for three weeks): no relevant tissue toxicity
- pathologic analysis of vital organs (hematoxylin and eosin) ([1]; Wednesday, Friday for three weeks, listed as NSC): no morphological changes or abnormal findings
- mouse behavior ([1]; 150 mg/kg in peanut oil, Monday, Wednesday, Friday for three weeks): did not display behavioral changes
- toxic effects on the animals ([1]; mice): did not display any toxic effects
- tumor cell proliferation (GSC83 and GBM43 cells): more reduction in tumor cell proliferation cells than single treatments
- sensitization to IR or/and TMZ (LC3B lipidation, p62) [2]: sensitized the tested cells to IR or/and TMZ by suppressing LC3B lipidation and increasing p62
- autophagy markers (LC3B conversion, p62 and LAMP2 degradation) [3]: attenuated autophagy induction
- survival analysis (growth-suppressive effects, FIG. 4E) [4]: not IR or NSC single treatment resulted in growth-suppressive effects
